Patent US20230190754A1, “Therapeutic combinations for the treatment of Progressive Fibrosing interstitial lung diseases” (Boehringer Ingelheim International GmbH, priority 2021, published 2023)
Values joined by “and” are separate entries in the source; they are usually repeats but may differ in a detail not shown here. Equal values may be shown once.

How the values were obtained:
[1] = system: PDE4 subtypes, A-D; conditions: cited from earlier work
[2] = system: IPF patients; test: Phase II clinical trial in IPF patients: completion / premature discontinuation of observation and treatment period; format: in vivo, human; conditions: 18 mg b.i.d.
Description: The participants were divided into 2 groups by chance (the “active agent group” and the “placebo group”). […] One 12 mg placebo tablet and one 6 mg placebo tablet (both containing no active ingredient, see Table 1) was administered orally to the patients of the second group twice daily (b.i.d.).
The “active agent group” and the “placebo group” were further distributed to two different groups regarding background medication: the “AF-group” (“antifibrotic background medication group”) and the “Non-AF-group” (“no antifibrotic background medication group”). […] The combination of both nintedanib and pirfenidone as background medication was not allowed in the “AF-group”.
The trial was a randomised, double-blind, placebo-controlled parallel group study.

[3] = system: IPF patients; test: Phase II clinical trial in IPF patients: change from baseline in Forced Vital Capacity (FVC) over 12 weeks (MMRM); format: in vivo, human; conditions: 18 mg b.i.d.
[4] = AF-group (antifibrotic background)
[5] = AF-group (antifibrotic background), listed as Comp. of Form. III
[6] = AF-group (antifibrotic background), listed as active agent
[7] = AF-group, nintedanib background
[8] = AF-group, pirfenidone background
[9] = pooled background therapy (Non-AF+AF)

## [O-][S@+]1CCc2nc(N3CCC(c4ncc(Cl)cn4)CC3)nc(NC3(CO)CCC3)c21 [Comp. of form. III]
[1]
  Preferential enzymatic inhibition among the PDE4 subtypes (in words): inhibit preferentially the PDE4 B subtype
[2]; [4]
  Not completed planned treatment period (premature discontinuation), patients %: 20.4%
  Not completed planned treatment period (premature discontinuation), patients N: 10
  Observation period not completed: Death, patients %: 2.0%
  Observation period not completed: Death, patients N: 1
  Treatment period not completed: Adverse Event, patients %: 20.4%
  Treatment period not completed: Adverse Event, patients N: 10
[2]; Non-AF-group
  Not completed planned treatment period (premature discontinuation), patients %: 10.4%
  Not completed planned treatment period (premature discontinuation), patients N: 5
  Observation period not completed: Death, patients %: 2.1%
  Observation period not completed: Death, patients N: 1
  Treatment period not completed: Adverse Event, patients %: 6.3%
  Treatment period not completed: Adverse Event, patients N: 3
[3]; [5]
  Adjusted mean change from baseline in FVC to week 12 (MMRM): 2.72 mL
  Adjusted mean difference vs. Placebo in change from baseline in FVC to week 12 (MMRM): 80.4 mL and 80.42 mL
[3]; [6]
  Adjusted mean change from baseline in FVC to week 12 (MMRM): +2.72 ml
  Adjusted mean difference vs. Placebo in change from baseline in FVC to week 12 (MMRM): 80.42 mL
[3]; [7]
  Adjusted mean change from baseline in FVC to week 12 (MMRM): 23.41 mL
  Adjusted mean difference vs. Placebo in change from baseline in FVC to week 12 (MMRM): 105.43 mL
  Week 12 Mean FVC: 2787.37 mL
[3]; AF-group, nintedanib background, listed as PDE4-inhibitor of formula III
  Adjusted mean change from baseline in FVC to week 12 (MMRM): +23.41 ml
[3]; [8]
  Adjusted mean change from baseline in FVC to week 12 (MMRM): -18.76 mL
  Adjusted mean difference vs. Placebo in change from baseline in FVC to week 12 (MMRM): 61.30 mL
  Week 12 Mean FVC: 2879.35 mL
[3]; AF-group, pirfenidone background, listed as PDE4-inhibitor of formula III
  Adjusted mean change from baseline in FVC to week 12 (MMRM): -18.67 mL
[3]; Non-AF-group
  Adjusted mean change from baseline in FVC to week 12 (MMRM): 6.10 mL
  Adjusted mean difference vs. Placebo in change from baseline in FVC to week 12 (MMRM): 101.7 mL and 101.72 mL
[3]; Non-AF-group, listed as PDE4-inhibitor of formula III
  Adjusted mean difference vs. Placebo in change from baseline in FVC to week 12 (MMRM): 101.72 mL
[3]; Non-AF-group, listed as active agent
  Adjusted mean difference vs. Placebo in change from baseline in FVC to week 12 (MMRM): 101.72 mL
[3]; [9]
  Adjusted mean change from baseline in FVC to week 12 (MMRM): 4.59 mL
  Adjusted mean difference vs. Placebo in change from baseline in FVC to week 12 (MMRM): 88.38 mL
[3]; pooled background therapy (Non-AF+AF), listed as active agent
  Adjusted mean change from baseline in FVC to week 12 (MMRM): -4.59 mL
